Measurements taken from patent publication US6410054B1, “Immediate release eplerenone compositions” (G. D. Searle & Co., priority 1998, dated 2002).

Experiments:
Type in all cases: in vivo, humans
[1] = ADME study of [14C]eplerenone oral solution: plasma, whole blood, saliva pharmacokinetics; conditions: for Total Radioactivity AUC0-inf (± SEM) / Total Radioactivity Cmax (± SEM): 100 mg [14C]eplerenone oral solution
Experimental: (§1) An open-label, single dose study was employed to evaluate the absorption, distribution, metabolism and elimination profile of a single 100 mg dose of an oral solution of eplerenone.
(§2) The study employed eight healthy male humans. Each subject received a single 100 mg oral dose of a solution of [^14C]eplerenone (specific activity 0.75 μCi/mg). Plasma, saliva, breath, urine and fecal samples were collected at predetermined intervals and analyzed for sample radioactivity and the concentration of eplerenone and its open lactone ring form. Safety was determined on the basis of laboratory tests, vital signs, and the occurrence and types of adverse events.
(§3) The subjects, who underwent an overnight food fast prior to administration of the dose, received at 0800 hours a single 100 mg oral dose of an aqueous oral solution of radiolabeled eplerenone reconstituted in 80 mL of an apple juice/hydroxypropyl-β-cyclodextrin mixture. The subjects swallowed about 200 mL of water one, two and three hours post dosing.
(§4) Blood samples were collected at −0.5 (predose), 0.5, 1, 1.5, 2, 2.5, 3, 4, 6, 8, 12, 16, 24, 36, 48, 72 and 96 hours post dose. […] Individual fecal samples were collected beginning immediately after dosing and continuing through 0800 hours on day 8. In addition, one predose fecal sample was provided. Saliva samples were taken at 0.5 hour predose and at 0.5, 1, 2, 4, 6, 12, and 24 hours postdose. Breath samples were taken at 0.5 hour predose and at 1, 2, 3, 4, 6, 8, 12, 24, 36, 48 and 72 hours postdose.

[2] = ADME study of [14C]eplerenone oral solution: excretion in urine, feces, breath
Experimental: as §1, §2, §3, §4

[3] = Effect of food study: plasma pharmacokinetics fasted vs high-fat breakfast; conditions: for concentration at 0.5 h / concentration at 1 h / concentration at 2 h / concentration at 3 h / concentration at 4 h / concentration at 6 h / concentration at 8 h / concentration at 28 h / concentration at 48 h / concentration at 72 h / concentration at 12 h / concentration at 16 h / concentration at 24 h / concentration at 32 h / concentration at -0.5 h: male, human, plasma, oral, 100 mg, 100 mg eplerenone capsule; for concentration at 0.5 h: 0.5 hours after dosing; for concentration at 1 h: 1.0 hours after dosing; for concentration at 2 h: 2.0 hours after dosing; for concentration at 3 h: 3.0 hours after dosing; for concentration at 4 h: 4.0 hours after dosing; for concentration at 6 h: 6.0 hours after dosing; for concentration at 8 h: 8.0 hours after dosing; for concentration at 28 h: 28.0 hours after dosing; for concentration at 48 h: 48.0 hours after dosing; for concentration at 72 h: 72.0 hours after dosing; for concentration at 12 h / concentration at 16 h / concentration at 24 h / concentration at 32 h: […] after dosing; for concentration at -0.5 h: −0.5 hours after dosing
Experimental: An open-label randomized, cross-over study was employed to evaluate the pharmacokinetic profiles of eplerenone under fasted and fed conditions, and the safety and tolerability of eplerenone. Safety was assessed based on adverse events, vital signs and clinical laboratory tests. Twelve healthy male subjects were randomized to receive a single 100 mg dose of eplerenone on days 1 and 8 under (i) fasted conditions, or (ii) immediately following a high-fat breakfast. The subjects were orally administered (dosed) a single 100 mg dose of eplerenone in the form of the capsule described in Example 7, together with approximately 200 to 240 mL of water at 0800 hours on days 1 and 8. Subjects randomized to receive a high-fat breakfast were to completely ingest the meal within 20 minutes prior to dosing. The high-fat meal contained approximately 33 g protein, 75 g fat, 58 g carbohydrates and 1000 calories. […] All adverse events were mild in severity.

[4] = male, human, plasma, 100 mg eplerenone oral solution, single dose
[5] = 100 mg [14C]eplerenone oral solution
[6] = 100 mg [14C]eplerenone oral solution, mean

Structure (SMILES): COC(=O)C1CC2=CC(=O)CCC2(C)C23OC2CC2(C)C(CC[C@@]24CCC(=O)O4)C13 (stereo partly drawn) [eplerenone, methyl hydrogen 9,11α-epoxy-17α-hydroxy-3-oxopregn-4-ene-7α,21-dicarboxylate, γ-lactone]
- concentration of total radioactivity ([1]; 1.5 hour plasma samples, mean): 2390 ng/mL
- Total Radioactivity AUC0-inf (± SEM) ([1]; Plasma): 18400 ± 1200 ng equivalents hr/mL
- Total Radioactivity Cmax (± SEM) ([1]; Plasma): 2490 ± 110 ng equivalents/mL
- Total Radioactivity AUC0-inf (± SEM) ([1]; Saliva): 7960 ± 500 ng equivalents hr/mL
- Total Radioactivity Cmax (± SEM) ([1]; Saliva): 2170 ± 280 ng equivalents/mL
- Total Radioactivity AUC0-inf (± SEM) ([1]; Whole Blood): 12800 ± 800 ng equivalents hr/mL
- Total Radioactivity Cmax (± SEM) ([1]; Whole Blood): 1770 ± 80 ng equivalents/mL
- concentration at 0.5 h ([1]; male, human, plasma, 100 mg oral solution of [14C]eplerenone, 0.5 hours after dosing): 1340 ng/mL
- concentration at 1 h ([1]; male, human, plasma, 100 mg oral solution of [14C]eplerenone, 1.0 hours after dosing): 1620 ng/mL
- concentration at 1.5 h ([1]; male, human, plasma, 100 mg oral solution of [14C]eplerenone, 1.5 hours after dosing): 1590 ng/mL
- concentration at 2 h ([1]; male, human, plasma, 100 mg oral solution of [14C]eplerenone, 2.0 hours after dosing): 1420 ng/mL
- concentration at 2.5 h ([1]; male, human, plasma, 100 mg oral solution of [14C]eplerenone, 2.5 hours after dosing): 1260 ng/mL
- concentration at 3 h ([1]; male, human, plasma, 100 mg oral solution of [14C]eplerenone, 3.0 hours after dosing): 1180 ng/mL
- concentration at 4 h ([1]; male, human, plasma, 100 mg oral solution of [14C]eplerenone, 4.0 hours after dosing): 1000 ng/mL
- concentration at 6 h ([1]; male, human, plasma, 100 mg oral solution of [14C]eplerenone, 6.0 hours after dosing): 596 ng/mL
- concentration at 8 h ([1]; male, human, plasma, 100 mg oral solution of [14C]eplerenone, 8.0 hours after dosing): 391 ng/mL
- concentration at 12 h ([1]; male, human, plasma, 100 mg oral solution of [14C]eplerenone, 12.0 hours after dosing): 149 ng/mL
- concentration at 16 h ([1]; male, human, plasma, 100 mg oral solution of [14C]eplerenone, 16.0 hours after dosing): 68 ng/mL
- concentration at 24 h ([1]; male, human, plasma, 100 mg oral solution of [14C]eplerenone, 24.0 hours after dosing): 17.3 ng/mL
- concentration at 36 h ([1]; male, human, plasma, 100 mg oral solution of [14C]eplerenone, 36.0 hours after dosing): 0 ng/mL
- concentration at 48 h ([1]; male, human, plasma, 100 mg oral solution of [14C]eplerenone, 48.0 hours after dosing): 0 ng/mL
- concentration at 72 h ([1]; male, human, plasma, 100 mg oral solution of [14C]eplerenone, 72.0 hours after dosing): 0 ng/mL
- concentration at 96 h ([1]; male, human, plasma, 100 mg oral solution of [14C]eplerenone, 96.0 hours after dosing): 0 ng/mL
- concentration at -0.5 h ([1]; male, human, plasma, 100 mg oral solution of [14C]eplerenone, −0.5 hours after dosing): 0 ng/mL
- Cmax [1, 4]: 1720 ng/mL
- half-life [1, 4]: 3.8 h
- AUC(0-t) ([1]; male, human, plasma, 100 mg eplerenone oral solution, single dose, read-out: AUC(0-96)): 9540 ng·h/mL
- MRT ([1]; male, human, plasma, 100 mg eplerenone oral solution, single dose, read-out: Mean Residence Time): 4.8 h
- Tmax ([1]; male, human, plasma, 100 mg eplerenone oral solution, single dose, read-out: Tmax): 1.3 h
- Oral Clearance ([1]; plasma, 100 mg eplerenone oral solution, single dose): 11.4 L/h
- share of urinary and fecal radioactivity due to eplerenone [2, 5]: less than 15%
- urinary radioactivity excreted within the first 24 hours [2, 5]: Over 90%
- dose excreted as total radioactivity in feces [2, 6]: 32.0%
- dose excreted as total radioactivity in urine [2, 6]: 66.6%
- dose excreted in feces as the named form [2, 6]: 0.807%
- dose excreted in urine as the named form [2, 6]: 1.65%
- total radioactivity in the breath ([2]; any time point, any subject): no detectable concentrations
- effect of high-fat meal on AUC0-96 ([3]; 100 mg capsule, fed vs fasted): minimal or no measurable effect
- effect of high-fat meal on Cmax ([3]; 100 mg capsule, fed vs fasted): reduction
- effect of high-fat meal on Tmax ([3]; 100 mg capsule, fed vs fasted): increase
- effect of high-fat meal on T½ ([3]; 100 mg capsule, fed vs fasted): minimal or no measurable effect
- concentration at 0.5 h ([3]; Fasted Conditions): 1010 ng/mL
- concentration at 1 h ([3]; Fasted Conditions): 1560 ng/mL
- concentration at 2 h ([3]; Fasted Conditions): 1390 ng/mL
- concentration at 3 h ([3]; Fasted Conditions): 1170 ng/mL
- concentration at 4 h ([3]; Fasted Conditions): 955 ng/mL
- concentration at 6 h ([3]; Fasted Conditions): 587 ng/mL
- concentration at 8 h ([3]; Fasted Conditions): 388 ng/mL
- concentration at 28 h ([3]; Fasted Conditions): 7.62 ng/mL
- concentration at 48 h ([3]; Fasted Conditions): 0 ng/mL
- concentration at 72 h ([3]; Fasted Conditions): 0 ng/mL
- concentration at 12 h ([3]; Fasted Conditions): 151 ng/mL
- concentration at 16 h ([3]; Fasted Conditions): 68.8 ng/mL
- concentration at 24 h ([3]; Fasted Conditions): 17.7 ng/mL
- concentration at 32 h ([3]; Fasted Conditions): 3.28 ng/mL
- concentration at -0.5 h ([3]; Fasted Conditions): 0 ng/mL
- concentration at 0.5 h ([3]; High Fat Breakfast): 71.2 ng/mL
- concentration at 1 h ([3]; High Fat Breakfast): 366 ng/mL
- concentration at 2 h ([3]; High Fat Breakfast): 712 ng/mL
- concentration at 3 h ([3]; High Fat Breakfast): 1040 ng/mL
- concentration at 4 h ([3]; High Fat Breakfast): 1240 ng/mL
- concentration at 6 h ([3]; High Fat Breakfast): 946 ng/mL
- concentration at 8 h ([3]; High Fat Breakfast): 673 ng/mL
- concentration at 28 h ([3]; High Fat Breakfast): 21.7 ng/mL
- concentration at 48 h ([3]; High Fat Breakfast): 1.91 ng/mL
- concentration at 72 h ([3]; High Fat Breakfast): 0 ng/mL
- concentration at 12 h ([3]; High Fat Breakfast): 282 ng/mL
- concentration at 16 h ([3]; High Fat Breakfast): 130 ng/mL
- concentration at 24 h ([3]; High Fat Breakfast): 39 ng/mL
- concentration at 32 h ([3]; High Fat Breakfast): 7.51 ng/mL
- concentration at -0.5 h ([3]; High Fat Breakfast): 0 ng/mL
